Reference: publication PMC5218480 (PLoS ONE, 2017)

System: MV-4-11 cells
Test: Gene expression microarray analysis (Affymetrix PrimeView) and GSEA
Type: cell-based, human
Design: RFU PODN (11730768_x_at) / Fold change /veh PODN (11730768_x_at) / RFU LINC00158 (11744669_a_at) / Fold change /veh LINC00158 (11744669_a_at) / RFU DUSP10 (11751237_a_at) / Fold change /veh DUSP10 (11751237_a_at) / RFU ID3 (11757404_x_at) / Fold change /veh ID3 (11757404_x_at) / RFU PLEKHG5 (11737974_s_at) / Fold change /veh PLEKHG5 (11737974_s_at) / RFU LRRC4B (11730491_at) / Fold change /veh LRRC4B (11730491_at) / RFU GIMAP4 (11747438_a_at) / Fold change /veh GIMAP4 (11747438_a_at) / RFU KRT8 (11758183_x_at) / Fold change /veh KRT8 (11758183_x_at) / RFU CNN1 (11734310_a_at) / Fold change /veh CNN1 (11734310_a_at) / RFU VPS37D (11726825_at) / Fold change /veh VPS37D (11726825_at) / RFU C10orf10 (11716522_x_at) / Fold change /veh C10orf10 (11716522_x_at) / RFU KIR2DL2 /// KIR2DL4 /// KIR2DL5A /// KIR2DL5B /// KIR2DS1 /// KIR2DS2 /// KIR2DS3 /// KIR2DS4 /// KIR3DL3 /// KIR3DL3 /// KIR3DS1 (11738374_at) / Fold change /veh KIR2DL2 /// KIR2DL4 /// KIR2DL5A /// KIR2DL5B /// KIR2DS1 /// KIR2DS2 /// KIR2DS3 /// KIR2DS4 /// KIR3DL3 /// KIR3DL3 /// KIR3DS1 (11738374_at) / RFU C1QL1 (11718748_at) / Fold change /veh C1QL1 (11718748_at) / RFU TMPRSS4 (11747572_a_at) / Fold change /veh TMPRSS4 (11747572_a_at) / RFU HAMP (11756126_x_at) / Fold change /veh HAMP (11756126_x_at) / RFU RNFT2 (11725882_a_at) / Fold change /veh RNFT2 (11725882_a_at) / RFU NR4A2 (11747474_a_at) / Fold change /veh NR4A2 (11747474_a_at) / RFU ABCC12 (11746883_a_at) / Fold change /veh ABCC12 (11746883_a_at) / RFU TMEM136 (11760407_x_at) / Fold change /veh TMEM136 (11760407_x_at) / RFU CLDN22 /// WWC2 (11732394_at) / Fold change /veh CLDN22 /// WWC2 (11732394_at) / RFU HLA-DPB1 (11760878_x_at) / Fold change /veh HLA-DPB1 (11760878_x_at) / RFU SPINT1 (11716480_a_at) / Fold change /veh SPINT1 (11716480_a_at) / RFU GAP43 (11754022_s_at) / Fold change /veh GAP43 (11754022_s_at) / RFU A4GNT (11735810_at) / Fold change /veh A4GNT (11735810_at) / RFU PRB3 (11715151_x_at) / Fold change /veh PRB3 (11715151_x_at) / RFU TUBB4B (11761932_at) / Fold change /veh TUBB4B (11761932_at) / RFU CAPN14 (11732068_a_at) / Fold change /veh CAPN14 (11732068_a_at) / RFU TMCC2 (11721928_a_at) / Fold change /veh TMCC2 (11721928_a_at) / RFU IRGQ (11745062_a_at) / Fold change /veh IRGQ (11745062_a_at) / RFU FAM174B (11720279_a_at) / Fold change /veh FAM174B (11720279_a_at) / RFU TMPRSS4 (11748680_a_at) / Fold change /veh TMPRSS4 (11748680_a_at) / RFU FAM212B (11763350_a_at) / Fold change /veh FAM212B (11763350_a_at) / RFU PLEKHG5 (11743358_a_at) / Fold change /veh PLEKHG5 (11743358_a_at) / RFU ZSCAN30 (11745921_a_at) / Fold change /veh ZSCAN30 (11745921_a_at) / RFU CMKLR1 (11741424_a_at) / Fold change /veh CMKLR1 (11741424_a_at) / RFU LOC101060620 /// MAPK8IP1 (11723275_at) / Fold change /veh LOC101060620 /// MAPK8IP1 (11723275_at) / RFU SPTSSB (11747773_x_at) / Fold change /veh SPTSSB (11747773_x_at) / RFU PRSS12 (11739890_at) / Fold change /veh PRSS12 (11739890_at) / RFU BIN1 (11741810_x_at) / Fold change /veh BIN1 (11741810_x_at) / RFU WNT11 (11732464_a_at) / Fold change /veh WNT11 (11732464_a_at) / RFU C10orf10 (11716521_a_at) / Fold change /veh C10orf10 (11716521_a_at) / RFU C5orf56 (11738089_at) / Fold change /veh C5orf56 (11738089_at) / RFU CYB561 (11721691_x_at) / Fold change /veh CYB561 (11721691_x_at) / RFU ANKRD19P (11752326_a_at) / Fold change /veh ANKRD19P (11752326_a_at) / RFU OR2T12 /// OR2T33 /// OR2T8 (11738714_s_at) / Fold change /veh OR2T12 /// OR2T33 /// OR2T8 (11738714_s_at) / RFU VCAN (11748164_a_at) / Fold change /veh VCAN (11748164_a_at) / RFU JSRP1 (11732532_at) / Fold change /veh JSRP1 (11732532_at) / RFU KRTAP10-11 (11738290_x_at) / Fold change /veh KRTAP10-11 (11738290_x_at) / RFU MYO3A (11730013_a_at) / Fold change /veh MYO3A (11730013_a_at) / RFU EBF3 (11725865_a_at) / Fold change /veh EBF3 (11725865_a_at) / RFU CAMK2N1 (11719241_x_at) / Fold change /veh CAMK2N1 (11719241_x_at) / RFU C5orf56 (11738088_a_at) / Fold change /veh C5orf56 (11738088_a_at) / RFU OLFML3 (11715873_a_at) / Fold change /veh OLFML3 (11715873_a_at) / RFU LOC100653217 /// NTM (11731650_a_at) / Fold change /veh LOC100653217 /// NTM (11731650_a_at) / RFU MAPK11 (11762145_a_at) / Fold change /veh MAPK11 (11762145_a_at) / RFU FIZ1 (11724087_x_at) / Fold change /veh FIZ1 (11724087_x_at) / RFU OASL (11726364_x_at) / Fold change /veh OASL (11726364_x_at) / RFU SOX15 (11748057_x_at) / Fold change /veh SOX15 (11748057_x_at) / RFU CD79A (11719716_a_at) / Fold change /veh CD79A (11719716_a_at) / RFU HIST1H1D (11736915_at) / Fold change /veh HIST1H1D (11736915_at) / RFU CASKIN2 (11723855_a_at) / Fold change /veh CASKIN2 (11723855_a_at) / RFU LOC730098 (11760151_x_at) / Fold change /veh LOC730098 (11760151_x_at) / RFU OR4N2 (11742367_at) / Fold change /veh OR4N2 (11742367_at) / RFU PRRT2 (11749266_a_at) / Fold change /veh PRRT2 (11749266_a_at) / RFU SNX32 (11753110_a_at) / Fold change /veh SNX32 (11753110_a_at) / RFU CDHR5 (11726645_a_at) / Fold change /veh CDHR5 (11726645_a_at) / RFU RCAN1 (11760418_a_at) / Fold change /veh RCAN1 (11760418_a_at) / RFU FAM167A (11723789_a_at) / Fold change /veh FAM167A (11723789_a_at) / RFU FAM26E (11764081_at) / Fold change /veh FAM26E (11764081_at) / RFU ISYNA1 (11749810_s_at) / Fold change /veh ISYNA1 (11749810_s_at) / RFU ACY1 (11761880_at) / Fold change /veh ACY1 (11761880_at) / RFU 11764098_at / Fold change /veh 11764098_at / RFU SAMD14 (11745864_x_at) / Fold change /veh SAMD14 (11745864_x_at) / RFU NPB (11741838_a_at) / Fold change /veh NPB (11741838_a_at) / RFU TMPRSS6 (11731388_a_at) / Fold change /veh TMPRSS6 (11731388_a_at) / RFU KRTAP10-2 (11738614_at) / Fold change /veh KRTAP10-2 (11738614_at) / RFU ARHGAP8 /// PRR5-ARHGAP8 (11727945_x_at) / Fold change /veh ARHGAP8 /// PRR5-ARHGAP8 (11727945_x_at) / RFU KRTAP5-7 /// NADSYN1 (11734609_at) / Fold change /veh KRTAP5-7 /// NADSYN1 (11734609_at) / RFU RASL12 (11751679_a_at) / Fold change /veh RASL12 (11751679_a_at) / RFU CDKN2B (11736163_a_at) / Fold change /veh CDKN2B (11736163_a_at) / RFU PRF1 (11729649_at) / Fold change /veh PRF1 (11729649_at) / RFU, ZNF638 /// ZNF638-IT1 / Fold change vs veh, ZNF638 /// ZNF638-IT1 / RFU, PANK3 / Fold change vs veh, PANK3 / RFU, SH3YL1 / Fold change vs veh, SH3YL1 / RFU, ZEB2 / Fold change vs veh, ZEB2 / RFU, NRIP1 / Fold change vs veh, NRIP1 / RFU, PTTG1IP / Fold change vs veh, PTTG1IP / RFU, CAPN2 / Fold change vs veh, CAPN2 / RFU, MED14 / Fold change vs veh, MED14 / RFU, SNORA58 / Fold change vs veh, SNORA58 / RFU, C1orf63 / Fold change vs veh, C1orf63 / RFU, LRRFIP1 / Fold change vs veh, LRRFIP1 / RFU, NDUFAF7 / Fold change vs veh, NDUFAF7 / RFU, SLC12A2 / Fold change vs veh, SLC12A2 / RFU, IBTK / Fold change vs veh, IBTK / RFU, ESF1 / Fold change vs veh, ESF1 / Fold change vs veh, TMEM50B / RFU, TAOK1 / Fold change vs veh, TAOK1 / RFU, ACBD3 / Fold change vs veh, ACBD3 / RFU, TMA16 / Fold change vs veh, TMA16 / RFU, RWDD3 / Fold change vs veh, RWDD3 / RFU, BCAT1 / Fold change vs veh, BCAT1 / RFU, EDEM3 / Fold change vs veh, EDEM3 / RFU, TMEM33 / Fold change vs veh, TMEM33 / RFU, WDR75 / Fold change vs veh, WDR75 / RFU, AHCTF1 / Fold change vs veh, AHCTF1 / RFU, TFRC / Fold change vs veh, TFRC / RFU, ZDHHC17 / Fold change vs veh, ZDHHC17 / RFU, NOM1 / Fold change vs veh, NOM1 / RFU, ARL8B / Fold change vs veh, ARL8B / RFU, ZBTB11 / Fold change vs veh, ZBTB11 / RFU, TAMM41 / Fold change vs veh, TAMM41 / RFU, KIAA1704 /// LOC100996395 / Fold change vs veh, KIAA1704 /// LOC100996395 / RFU, ING1 / Fold change vs veh, ING1 / RFU, TRMT61B / Fold change vs veh, TRMT61B / RFU, FUBP3 / Fold change vs veh, FUBP3 / RFU, TP53 / Fold change vs veh, TP53 / RFU, TNKS2 / Fold change vs veh, TNKS2 / RFU, ZFP14 / Fold change vs veh, ZFP14 / RFU, ACTR2 / Fold change vs veh, ACTR2 / RFU, PPP3R1 / Fold change vs veh, PPP3R1 / RFU, PIK3R1 / Fold change vs veh, PIK3R1 / RFU, HNRNPA1 / Fold change vs veh, HNRNPA1 / RFU, RNF170 / Fold change vs veh, RNF170 / RFU, ZNF28 / Fold change vs veh, ZNF28 / RFU, RNGTT / Fold change vs veh, RNGTT / RFU, OGT / Fold change vs veh, OGT / RFU, BRD1 / Fold change vs veh, BRD1 / RFU, MARS / Fold change vs veh, MARS / RFU, ZNF655 / Fold change vs veh, ZNF655 / RFU, FAHD1 / Fold change vs veh, FAHD1 / RFU, BDP1 / Fold change vs veh, BDP1 / RFU, LRRCC1 / Fold change vs veh, LRRCC1 / RFU, ARID1A / Fold change vs veh, ARID1A / RFU, ZNF146 / Fold change vs veh, ZNF146 / RFU, ZNF330 / Fold change vs veh, ZNF330 / RFU, GPN3 / Fold change vs veh, GPN3 / RFU, C9orf123 / Fold change vs veh, C9orf123 / RFU, N4BP2L2 / Fold change vs veh, N4BP2L2 / RFU, ARFIP1 / Fold change vs veh, ARFIP1 / RFU, FAM179B / Fold change vs veh, FAM179B / RFU, BCL10 / Fold change vs veh, BCL10 / RFU, UHRF1BP1L / Fold change vs veh, UHRF1BP1L / RFU, BET1 / Fold change vs veh, BET1 / RFU, CNOT2 / Fold change vs veh, CNOT2 / RFU, ZNF268 / Fold change vs veh, ZNF268 / Fold change vs veh, ZNF507 / RFU, DGCR2 / Fold change vs veh, DGCR2 / RFU, WDSUB1 / Fold change vs veh, WDSUB1 / Fold change vs veh, HSP90B1 /// MIR3652 / RFU, ADSS / Fold change vs veh, ADSS / RFU, GK / Fold change vs veh, GK / RFU, ZNF148 / Fold change vs veh, ZNF148 / RFU, TAF9 / Fold change vs veh, TAF9 / RFU, SLC1A5 / Fold change vs veh, SLC1A5 / RFU, SLMO2 / Fold change vs veh, SLMO2 / RFU, ABCC4 / Fold change vs veh, ABCC4 / RFU, LOC101060439 /// RAP1B / Fold change vs veh, LOC101060439 /// RAP1B / RFU, RFX7 / Fold change vs veh, RFX7 / RFU, GTPBP10 / Fold change vs veh, GTPBP10 / RFU, CNEP1R1 / Fold change vs veh, CNEP1R1 / RFU, BIVM-ERCC5 /// ERCC5 / Fold change vs veh, BIVM-ERCC5 /// ERCC5 / RFU, ILF3 / Fold change vs veh, ILF3 / RFU 11762660_at / Fold change /veh 11762660_at / RFU VCAN (11757783_s_at) / Fold change /veh VCAN (11757783_s_at) / RFU DDX43 (11728927_at) / Fold change /veh DDX43 (11728927_at) / RFU KRT8 (11758188_x_at) / Fold change /veh KRT8 (11758188_x_at) / RFU NKD1 (11759106_at) / Fold change /veh NKD1 (11759106_at) / RFU SRD5A1 (11742802_a_at) / Fold change /veh SRD5A1 (11742802_a_at) / RFU TPSAB1 /// TPSB2 (11721975_s_at) / Fold change /veh TPSAB1 /// TPSB2 (11721975_s_at) / RFU GSTM3 (11746129_a_at) / Fold change /veh GSTM3 (11746129_a_at) / RFU IL23R (11737362_x_at) / Fold change /veh IL23R (11737362_x_at) / RFU TMEM51 (11727254_a_at) / Fold change /veh TMEM51 (11727254_a_at) / RFU PIWIL2 (11732686_x_at) / Fold change /veh PIWIL2 (11732686_x_at) / RFU ORM1 (11744905_x_at) / Fold change /veh ORM1 (11744905_x_at) / RFU CCDC152 (11743942_at) / Fold change /veh CCDC152 (11743942_at) / RFU ECM1 (11717891_a_at) / Fold change /veh ECM1 (11717891_a_at) / RFU IL23R (11748794_a_at) / Fold change /veh IL23R (11748794_a_at) / RFU TNFAIP8L3 (11732012_x_at) / Fold change /veh TNFAIP8L3 (11732012_x_at) / RFU MBOAT4 (11741988_at) / Fold change /veh MBOAT4 (11741988_at) / RFU 11764193_at / Fold change /veh 11764193_at / RFU TMEM53 (11763286_at) / Fold change /veh TMEM53 (11763286_at) / RFU MAGEB2 (11727129_at) / Fold change /veh MAGEB2 (11727129_at) / RFU TMEM200A (11744735_a_at) / Fold change /veh TMEM200A (11744735_a_at) / RFU CCDC152 (11751479_a_at) / Fold change /veh CCDC152 (11751479_a_at) / RFU FAM211A (11726209_a_at) / Fold change /veh FAM211A (11726209_a_at) / RFU RGS16 (11746705_a_at) / Fold change /veh RGS16 (11746705_a_at) / RFU VCAN (11755009_s_at) / Fold change /veh VCAN (11755009_s_at) / RFU RHOB (11743442_s_at) / Fold change /veh RHOB (11743442_s_at) / RFU RGS16 (11720943_a_at) / Fold change /veh RGS16 (11720943_a_at) / RFU RGS16 (11720944_at) / Fold change /veh RGS16 (11720944_at) / RFU, VPS4B / Fold change vs veh, VPS4B / RFU, CREB1 / Fold change vs veh, CREB1 / RFU, DNAJC13 / Fold change vs veh, DNAJC13 / RFU, GNAQ / Fold change vs veh, GNAQ / RFU, CDK5R1 / Fold change vs veh, CDK5R1 / RFU, ZRANB3 / Fold change vs veh, ZRANB3 / RFU, CUL4A / Fold change vs veh, CUL4A / RFU, CCNY / Fold change vs veh, CCNY / RFU, UFL1 / Fold change vs veh, UFL1 / RFU, COG3 / Fold change vs veh, COG3 / RFU, DIAPH2 / Fold change vs veh, DIAPH2 / RFU, SKA2 / Fold change vs veh, SKA2 / RFU, AFF3 / Fold change vs veh, AFF3 / RFU, LMF1 / Fold change vs veh, LMF1 / RFU, IPO11 / Fold change vs veh, IPO11 / RFU, DFFB / Fold change vs veh, DFFB / RFU, FOXP1 / Fold change vs veh, FOXP1 / RFU, CARD8 / Fold change vs veh, CARD8 / RFU, STRN3 / Fold change vs veh, STRN3 / RFU, ADK / Fold change vs veh, ADK / RFU, RASSF2 / Fold change vs veh, RASSF2 / RFU, WIPF1 / Fold change vs veh, WIPF1 / RFU, LARP1B / Fold change vs veh, LARP1B / RFU, RASA1 / Fold change vs veh, RASA1 / RFU, RB1 / Fold change vs veh, RB1 / RFU, PPFIA1 / Fold change vs veh, PPFIA1 / RFU, MAT2A / Fold change vs veh, MAT2A / RFU, CCT5 / Fold change vs veh, CCT5 / RFU, WDR92 / Fold change vs veh, WDR92 / RFU, CUX1 / Fold change vs veh, CUX1 / RFU, TTC7A / Fold change vs veh, TTC7A / RFU, TMEM135 / Fold change vs veh, TMEM135 / RFU, DEPTOR / Fold change vs veh, DEPTOR / RFU, CPM / Fold change vs veh, CPM / RFU, DNAJB6 / Fold change vs veh, DNAJB6 / RFU, CACNA2D3 / Fold change vs veh, CACNA2D3 / RFU, DTX4 / Fold change vs veh, DTX4 / RFU, TFCP2 / Fold change vs veh, TFCP2 / RFU, GMCL1 /// GMCL1P1 / Fold change vs veh, GMCL1 /// GMCL1P1 / RFU, AEBP2 / Fold change vs veh, AEBP2 / RFU, SNHG1 /// SNORD22 /// SNORD25 /// SNORD26 /// SNORD27 /// SNORD28 /// SNORD29 /// SNORD31 / Fold change vs veh, SNHG1 /// SNORD22 /// SNORD25 /// SNORD26 /// SNORD27 /// SNORD28 /// SNORD29 /// SNORD31 / Fold change (Aza/veh), C12orf56 (ProbeSet 11735607_a_at) / Fold change (ACY-1035/veh), C12orf56 (ProbeSet 11735607_a_at) / Fold change (Aza/veh), FGFR1OP (ProbeSet 11751329_s_at) / Fold change (ACY-1035/veh), FGFR1OP (ProbeSet 11751329_s_at) / Fold change (Aza/veh), VPS36 (ProbeSet 11739960_a_at) / Fold change (ACY-1035/veh), VPS36 (ProbeSet 11739960_a_at) / RFU SYPL1 (11715823_x_at) / Fold change /veh SYPL1 (11715823_x_at) / RFU IGFBP7 (11715501_s_at) / Fold change /veh IGFBP7 (11715501_s_at) / RFU REEP3 (11722064_at) / Fold change /veh REEP3 (11722064_at) / RFU IGLL1 (11728026_x_at) / Fold change /veh IGLL1 (11728026_x_at): dose or concentration left out as unconfirmed
Conditions: ProbeSet 11732370_a_at; LIST D

## Nc1ncn([C@@H]2O[C@H](CO)[C@@H](O)[C@H]2O)c(=O)n1 [azacitidine]
  RFU, CUX1: 199.77 RFU
